pIC50: −log10 of the molar value.
Experiments:
myeloperoxidase [1] = target: T1, myeloperoxidase (Homo sapiens, UniProt P05164); experiment: MPO Peroxidation Assay (Amplex Red Assay); assay type: biochemical; details: potency range class, read-out: Amplex Red Assay IC50 value
T1 sequence (P05164 49-745): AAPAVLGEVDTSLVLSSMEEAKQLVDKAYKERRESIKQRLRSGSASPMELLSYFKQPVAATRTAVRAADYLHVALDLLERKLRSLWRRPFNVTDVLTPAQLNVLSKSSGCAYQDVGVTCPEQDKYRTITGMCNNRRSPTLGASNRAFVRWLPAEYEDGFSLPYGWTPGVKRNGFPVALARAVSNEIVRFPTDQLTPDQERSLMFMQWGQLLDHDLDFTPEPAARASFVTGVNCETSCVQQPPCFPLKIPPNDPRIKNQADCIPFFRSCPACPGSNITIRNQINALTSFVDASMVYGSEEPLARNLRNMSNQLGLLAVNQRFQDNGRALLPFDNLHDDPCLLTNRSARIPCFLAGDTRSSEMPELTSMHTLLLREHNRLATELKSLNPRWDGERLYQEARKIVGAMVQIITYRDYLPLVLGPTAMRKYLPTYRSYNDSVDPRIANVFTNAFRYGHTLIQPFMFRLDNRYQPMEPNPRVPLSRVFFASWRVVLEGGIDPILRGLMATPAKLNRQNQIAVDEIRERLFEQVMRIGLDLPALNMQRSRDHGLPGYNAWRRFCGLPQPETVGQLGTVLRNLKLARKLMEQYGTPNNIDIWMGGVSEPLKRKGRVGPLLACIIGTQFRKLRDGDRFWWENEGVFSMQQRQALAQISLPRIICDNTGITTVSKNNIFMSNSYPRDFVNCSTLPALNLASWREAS

myeloperoxidase [2] = target: T1, myeloperoxidase; experiment: MPO Chlorination Assay (APF Assay); assay type: biochemical; details: potency range class, read-out: APF Assay IC50 value

Row | SMILES | pIC50 (myeloperoxidase [1]) | pIC50 (myeloperoxidase [2])
1 | Nc1cc(C(CCNC2(C(F)(F)F)CCC(c3ccccc3)CC2)c2ccccc2)c2nn[nH]c2n1 (stereo not drawn) [Example 151, 7-(1-phenyl-3-{[4-phenyl-1-(trifluoromethyl)cyclohexyl]amino}propyl)-3H-[1,2,3]triazolo[4,5-b] pyridin-5-amine] | 5.00 to 6.00 | 5.00 to 6.00
2 | Nc1cc(C(CCNC23CCC(c4ccccc4)(CC2)CC3O)c2ccccc2)c2nn[nH]c2n1 (stereo not drawn) [Example 152, 1-[(3-{5-amino-3H-[1,2,3]triazolo[4,5-b]pyridin-7-yl}-3-phenylpropyl)amino]-4-phenylbicyclo [2.2.2]octan-2-ol] | 7.00 to 9.00 | 7.00 to 9.00
3 | COC1CC2(c3ccccc3)CCC1(NCC[C@H](c1ccccc1)c1cc(N)nc3[nH]nnc13)CC2 (stereo partly drawn) [Example 153, 7-[(1R)-3-({2-methoxy-4-phenylbicyclo[2.2.2]octan-1-yl}amino)-1-phenylpropyl]-3H-[1,2,3]triazolo[4,5-b]pyridin-5-amine] | 7.00 to 9.00 | 7.00 to 9.00
4 | N#Cc1cccc(C(CCNC2CCC(c3ccccc3)CC2)c2cc(N)nc3[nH]nnc23)c1 (stereo not drawn) [Example 155, 3-(1-{5-amino-3H-[1,2,3]triazolo [4,5-b]pyridin-7-yl}-3-[(4-phenylcyclohexyl)amino]propyl)benzonitrile] | 6.00 to 7.00 | 7.00 to 9.00
5 | Nc1cc(C(CCN[C@H]2CC[C@H](c3ccccc3)CC2)c2cccc(F)c2)c2nn[nH]c2n1 (stereo partly drawn) [Example 156, 7-[1-(3-fluorophenyl)-3-{[(trans)-4-phenylcyclohexyl]amino}propyl]-3H-[1,2,3]triazolo [4,5-b]pyridin-5-amine] | 6.00 to 7.00 | 7.00 to 9.00
6 | Nc1cc(C(CCN[C@H]2CC[C@H](c3ccccc3)CC2)c2ccccc2F)c2nn[nH]c2n1 (stereo partly drawn) [Example 157, 7-[1-(2-fluorophenyl)-3-{[(trans)-4-phenylcyclohexyl]amino}propyl]-3H-[1,2,3]triazolo [4,5-b]pyridin-5-amine] | 6.00 to 7.00 | 7.00 to 9.00
7 | COc1cccc(C(CCN[C@H]2CC[C@H](c3ccccc3)CC2)c2cc(N)nc3[nH]nnc23)c1 (stereo partly drawn) [Example 158, 7-[1-(3-methoxyphenyl)-3-{[(trans)-4-phenylcyclohexyl]amino}propyl]-3H-[1,2,3]triazolo [4,5-b]pyridin-5-amine] | 6.00 to 7.00 | 7.00 to 9.00
8 | N#Cc1ccc(C(CCN[C@H]2CC[C@H](c3ccccc3)CC2)c2cc(N)nc3[nH]nnc23)cc1 (stereo partly drawn) [Example 159, 4-(1-{5-amino-3H-[1,2,3]triazolo [4,5-b]pyridin-7-yl}-3-{[(trans)-4-phenylcyclohexyl]amino}propyl) benzonitrile] | 6.00 to 7.00 | 5.00 to 6.00
9 | N#Cc1ccccc1C(CCN[C@H]1CC[C@H](c2ccccc2)CC1)c1cc(N)nc2[nH]nnc12 (stereo partly drawn) [Example 161, 2-(1-{5-amino-3H-[1,2,3]triazolo [4,5-b]pyridin-7-yl}-3-{[(trans)-4-phenylcyclohexyl]amino}propyl) benzonitrile] | 5.00 to 6.00 | 6.00 to 7.00
10 | Nc1cc(C(CCN[C@H]2CC[C@H](c3ccccc3)CC2)c2cccc(CO)c2)c2nn[nH]c2n1 (stereo partly drawn) [Example 164, [3-(1-{5-amino-3H-[1,2,3]triazolo [4,5-b]pyridin-7-yl}-3-{[(trans)-4-phenylcyclohexyl]amino}propyl)phenyl]methanol] | 5.00 to 6.00 | 7.00 to 9.00
11 | Nc1cc(C(CCN[C@H]2CC[C@H](c3ccccc3)CC2)c2cccc(S(N)(=O)=O)c2)c2nn[nH]c2n1 (stereo partly drawn) [Example 165, 3-(1-{5-amino-3H-[1,2,3]triazolo [4,5-b]pyridin-7-yl}-3-{[(trans)-4-phenylcyclohexyl]amino}propyl) benzene-1-sulfonamide] | 6.00 to 7.00 | 6.00 to 7.00
12 | Nc1cc(C(CCN[C@H]2CC[C@H](c3ccccc3)CC2)c2cccc(OC(F)F)c2)c2nn[nH]c2n1 (stereo partly drawn) [Example 166, 7-{1-[3-(difluoromethoxy)phenyl]-3-{[(trans)-4-phenylcyclohexyl]amino}propyl}-3H-[1,2,3]triazolo[4,5-b]pyridin-5-amine] | 6.00 to 7.00 | 7.00 to 9.00
13 | Cc1ccc(F)c(C(CCN[C@H]2CC[C@H](c3ccccc3)CC2)c2cc(N)nc3[nH]nnc23)c1 (stereo partly drawn) [Example 168, 7-[1-(2-fluoro-5-methylphenyl)-3-{[(trans)-4-phenylcyclohexyl]amino}propyl]-3H-[1,2,3]triazolo [4,5-b]pyridin-5-amine] | 5.00 to 6.00 | 7.00 to 9.00
14 | COc1ccc(CNCCC(c2ccccc2)c2cc(N)nc3[nH]nnc23)cc1 (stereo not drawn) [Example 175, 7-(3-{[(4-methoxyphenyl)methyl]amino}-1-phenylpropyl)-3H-[1,2,3]triazolo [4,5-b]pyridin-5-amine] | 6.00 to 7.00 | 6.00 to 7.00
15 | Nc1cc([C@H](CCNC23CCC(c4ccccc4)(CC2)C(=O)C3)c2ccccc2)c2nn[nH]c2n1 [Example 182, 4-{[(3R)-3-{5-amino-3H-[1,2,3]triazolo [4,5-b]pyridin-7-yl}-3-phenylpropyl]amino}-1-phenylbicyclo [2.2.2]octan-2-one] | 6.00 to 7.00 | 7.00 to 9.00

Second part, the compound after the results:

Row | pIC50 (myeloperoxidase [1]) | pIC50 (myeloperoxidase [2]) | SMILES
16 | 5.00 to 6.00 | 6.00 to 7.00 | Nc1cc(C(CCNC2CC3CCC(C2)C3c2ccccc2)c2ccccc2)c2nn[nH]c2n1 (stereo not drawn) [Example 149, 7-[1-phenyl-3-({8-phenylbicyclo[3.2.1]octan-3-yl}amino)propyl]-3H-[1,2,3]triazolo[4,5-b] pyridin-5-amine]
17 | 6.00 to 7.00 | 7.00 to 9.00 | Nc1cc(C(CCNC2CC[C@H](c3ccccc3)[C@@H](O)C2)c2ccccc2)c2nn[nH]c2n1 (stereo partly drawn) [Example 150, (1S,2R)-5-[(3-{5-amino-3H-[1,2,3]triazolo[4,5-b]pyridin-7-yl}-3-phenylpropyl)amino]-2-phenylcyclohexan-1-ol]
18 | 7.00 to 9.00 | 7.00 to 9.00 | Nc1cc([C@H](CCNC23CCC(c4ccccc4)(CC2)C(O)C3)c2ccccc2)c2nn[nH]c2n1 (stereo partly drawn) [Example 154, 4-{[(3R)-3-{5-amino-3H-[1,2,3]triazolo [4,5-b]pyridin-7-yl}-3-phenylpropyl]amino}-1-phenylbicyclo [2.2.2]octan-2-ol]
19 | 6.00 to 7.00 | 5.00 to 6.00 | NCc1ccc(C(CCN[C@H]2CC[C@H](c3ccccc3)CC2)c2cc(N)nc3[nH]nnc23)cc1 (stereo partly drawn) [Example 160, 7-{1-[4-(aminomethyl)phenyl]-3-{[(trans)-4-phenylcyclohexyl]amino}propyl}-3H-[1,2,3]triazolo[4,5-b]pyridin-5-amine]
20 | 6.00 to 7.00 | 7.00 to 9.00 | Nc1cc(C(CCN[C@H]2CC[C@H](c3ccccc3)CC2)c2cccc(Cl)c2)c2nn[nH]c2n1 (stereo partly drawn) [Example 162, 7-[1-(3-chlorophenyl)-3-{[(trans)-4-phenylcyclohexyl]amino}propyl]-3H-[1,2,3]triazolo [4,5-b]pyridin-5-amine]
21 | 7.00 to 9.00 | 7.00 to 9.00 | N#Cc1cccc(C(CCNC23CCC(c4ccccc4)(CC2)CC3)c2cc(N)nc3[nH]nnc23)c1 (stereo not drawn) [Example 171, 7-(1-(3-cyanophenyl)-3-((4-phenylbicyclo[2.2.2]octan-1-yl)amino)propyl)-3H-[1,2,3]triazolo[4,5-b]pyridin-5-amine]
22 | 6.00 to 7.00 | 7.00 to 9.00 | NCc1cccc(C(CCNC23CCC(c4ccccc4)(CC2)CC3)c2cc(N)nc3[nH]nnc23)c1 (stereo not drawn) [Example 172, 7-(1-(3-(aminomethyl)phenyl)-3-((4-phenylbicyclo[2.2.2]octan-1-yl)amino)propyl)-3H-[1,2,3]triazolo[4,5-b]pyridin-5-amine]
23 | 6.00 to 7.00 | 7.00 to 9.00 | Nc1cc(C(CCNCC2CC2c2ccc(F)cc2)c2ccccc2)c2nn[nH]c2n1 (stereo not drawn) [Example 176, 7-[3-({[2-(4-fluorophenyl)cyclopropyl]methyl}amino)-1-phenylpropyl]-3H-[1,2,3]triazolo[4,5-b]pyridin-5-amine]
24 | 6.00 to 7.00 | 7.00 to 9.00 | N#CC1(c2ccccc2)CCC(NCCC(c2ccccc2)c2cc(N)nc3[nH]nnc23)CC1 (stereo not drawn) [Example 177, 4-((3-(5-amino-3H-[1,2,3]triazolo[4,5-b]pyridin-7-yl)-3-phenylpropyl)amino)-1-phenylcyclohexane-1-carbonitrile]
25 | 6.00 to 7.00 | 7.00 to 9.00 | Nc1cc(C(CCN[C@@H]2CC[C@@H](c3ccccc3)C[C@@H]2CO)c2ccccc2)c2nn[nH]c2n1 (stereo partly drawn) [Example 180, [(1S,2R,5R)-2-[(3-{5-amino-3H-[1,2,3]triazolo[4,5-b]pyridin-7-yl}-3-phenylpropyl)amino]-5-phenylcyclohexyl] methanol]
26 | 5.00 to 6.00 | 7.00 to 9.00 | Nc1cc([C@H](CCNC2CC[C@H](c3ccccc3)[C@@H](O)C2)c2ccccc2)c2nn[nH]c2n1 (stereo partly drawn) [Example 183, (1S,2R)-5-{[(3R)-3-{5-amino-3H-[1,2,3]triazolo [4,5-b]pyridin-7-yl}-3-phenylpropyl]amino}-2-phenylcyclohexan-1-ol]
27 | 6.00 to 7.00 | 7.00 to 9.00 | Nc1cc([C@H](CCNC2CC[C@H](c3ccccc3)[C@@H](O)C2)c2ccccc2)c2nn[nH]c2n1 (stereo partly drawn) [Example 184, (1S,2R)-5-{[(3R)-3-{5-amino-3H-[1,2,3]triazolo[4,5-b]pyridin-7-yl}-3-phenylpropyl]amino}-2-phenylcyclohexan-1-ol]
